A value given as a limit tells only on which side of the number the result lay.

Series [1] is described as follows: Dispersion stability of acidified POOA solutions with dispersing agents. Type of series: physicochemical. Here is the method:
The SLS, LAS and SOA dispersing agents were then further examined for efficacy in stabilizing and/or dispersing in 1% or lower sulfuric acid solutions. Solutions were made according to the following order (3, 6, 9, 12, 1, 4, 7, 10, 2, 5, 8, 11, 13, 14). Solution 13 was made as 1 through 12 with the addition of 50 mL of 5 grain hard water to the aliquot of alkaline reaction solution followed by swirling with the surface aliquot and then additional 50 mL of 5 grain hard water, followed within about 5 seconds by 50 mL of 5 grain 2% sulfuric acid and swirled. Solution 14 was made by direct addition of 1% sulfuric acid (5 grain) without pre-dilution, but after moments of swirling with SLS aliquot. All concentrations are shown in ppm.
For the POOA solutions the targeted peracid concentration was based upon initial average of about 5.40 wt-% of ongoing cold alkaline peracid hydrolysis according to the invention (**), wherein the aliquot was constant while POOA was increasing.
The appearance of an oil sheen was regarded as a pass or fail.

Series [2] is described as follows: Coupling of precipitated POOA solution by surfactants and hydrotropes. Type of series: physicochemical. To be noted: 1000 ppm POOA in DI Water. The procedure:
A variety of surfactants were analyzed for coupling and/or dispersion stabilizing of a peroxycarboxylic acid composition generated according to the methods of the invention. In particular, a peroxyoctanoic acid (POOA) composition in deionized water produced according to the invention was analyzed for coupling and/or dispersion stabilization using the dispersing agents set forth in Table 14A.
Given the very limited water solubility of POOA in its protonated form, acidification of the alkaline perhydrolysis solutions of the same causes immediate precipitation and rapid phase separation. In this example various surfactants and hydrotropes were evaluated for their ability to couple the POOA. In Table 14A it can be seen that the most efficient agents for coupling an already precipitated solution of POOA were samples I and II.

Series [3] concerns Escherichia coli ATCC 11229. The series is described as follows: Sanitizing efficacy of in situ generated peroxycarboxylic acids. Type of series: cell-based. The conditions noted are these: 25° C. Here is the method: A study was run to evaluate the sanitizing efficacy of mixtures of peroxycarboxylic acids generated in situ from esters under alkaline conditions. For this study the following ester based peroxycarboxylic acid forming compositions were used.
The above Peroxycarboxylic acid premixes were then tested alone at various concentrations, and mixed at various concentrations against Staphylococcus aureus ATCC 6538, and Escherichia coli ATCC 11229.
The test substances were tested against Staphylococcus aureus ATCC 6538, and Escherichia coli ATCC 11229 at 25° C.±1° C. for 30 seconds. A neutralizer screen was performed as part of the testing to verify that the neutralizer adequately neutralized the product and was not detrimental to the tested organisms.

Setting [4] is: 35 ppm POAA, pH 5.00, 30 seconds.
Setting [5] is: 61 ppm POAA, pH 5.00, 30 seconds.
Where [6] appears, read: 13 ppm POOA, pH 4.98, 30 seconds.
The mark [7] stands for this setting: 15 ppm POOA, pH 5.01, 30 seconds.
Setting [8] is: 20 ppm POOA, pH 4.98, 30 seconds.

As to `CCCCCCCCCCCCOS(=O)(=O)[O-].[Na+]` [I, Sodium Lauryl Sulfate], the “dispersant performance for acidified POOA” value in series [1] (acidic, aqueous dispersions of POOA) is “exceptional dispersant”. Moreover, the “Amount of (B) Required for Coupling (g/200 g aq POOA)” value (“Amount of (B) Required for Coupling” below) in series [2] is 0.64 g/200 g aq POOA.

On to `CC(=O)OO` [POAA, peroxyacetic acid], for which, in series [3] (setting [4]), the “Average Log10 Survivors” value was 7.27 Log10, the “Log Reduction” value is reported as 0.78 Log and the “Survivors (CFU/mL)” value is 1.85 × 10^7 CFU/mL. For the same compound, in series [3] (setting [5]), the “Average Log10 Survivors” value stood at 3.93 Log10, the “Log Reduction” value was 4.12 Log and the “Survivors (CFU/mL)” value is given as 3.0 × 10^3 CFU/mL.

Take `CCCCCCCC(=O)OO` [POOA, peroxyoctanoic acid]: in series [3] (setting [6]), the “Average Log10 Survivors” value was determined as 7.59 Log10, the “Log Reduction” value was found to be 0.46 Log and the “Survivors (CFU/mL)” value is reported as 4.22 × 10^7 CFU/mL. In series [3] (setting [7]), the “Average Log10 Survivors” value worked out at 7.15 Log10, the “Log Reduction” value stood at 0.90 Log and the “Survivors (CFU/mL)” value was 1.06 × 10^7 CFU/mL. Besides, in series [3] (setting [8]), the “Average Log10 Survivors” value was determined as 5.85 Log10 and the “Log Reduction” value was found to be 2.20 Log.

Turning to `CCCCCCCCS(=O)(=O)[O-].[Na+]` [VII, Sodium octanesulfonate], the “Amount of (B) Required for Coupling” value in series [2] was determined as 6.60 g/200 g aq POOA.

On to `CCCCC(CC)COC(=O)CC(C(=O)OCC(CC)CCCC)S(=O)(=O)[O-].[Na+]` (centres unmarked) [X, Sodium dioctyl Sulfosuccinates], for which the “Amount of (B) Required for Coupling” value in series [2] is recorded as more than 2.0 g/200 g aq POOA.

Alkyl Polyglycosides [VI]: in series [2], the “Amount of (B) Required for Coupling” value was 2.46 g/200 g aq POOA.

Linear Aryl Sulfonate [II]: in series [1] (acidified POOA in 10,000 ppm H2SO4, oil sheen regarded as fail), the “oil sheen at 23 h” value was “minimal surface oil”. The “Amount of (B) Required for Coupling” value in series [2] was found to be 0.65 g/200 g aq POOA; in series [2] (listed as LAS), 0.64 g/200 g aq POOA.

As to Sodium Lauryl Ether Sulfate [III], the “Amount of (B) Required for Coupling” value in series [2] is listed as more than 0.94 g/200 g aq POOA.

The values are drawn from patent publication US8846107B2, “In situ generation of peroxycarboxylic acids at alkaline pH, and methods of use thereof” (priority 2010, dated 2014).
